Experiments:
[1] = test system: GLXMAW (Soybean, Williams); assay: Preemergence herbicidal evaluation; assay type: in vivo, Glycine max, (L.) Merr. cv Williams; settings: rated 4-5 weeks after treatment
How it was run: (§1)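 Each species is sown separately in potting soil over roughly an inch of soil before any emergence. The soil surface then receives an aqueous acetone spray delivering about 0.0156 to 0.500 kg/ha of compound. After four to five weeks, injury is scored from 0 to 9 relative to a control.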

ZEAMX (Corn, Field) = assay: Postemergence herbicidal evaluation; assay type: in vivo, Zea mays; settings: for Herbicidal rating ZEAMX: postemergence
How it was run: (§2)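 Visual 0-9 injury score (stand, vigor, malformation, size, chlorosis, appearance vs untreated) taken four to five weeks post-spray, averaged across repeat tests. Test plants about two weeks old; foliar spray of acetone/water (1:1) with 0.5% surfactant delivering ~0.0156-0.500 kg active/ha.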

MOOVA (Monochoria) = assay: Preemergence weed control under flooded paddy conditions; assay type: in vivo, Monochoria vaginalis; settings: rated 3-4 weeks after treatment
How it was run: (§3)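 Using flooded silt loam (water 1.5 to 3 cm deep), seeds sown in the top 0.5 cm were exposed preemergence to compound pipetted into the flood at about 0.0313 to 0.500 kg/ha. Effects were scored 0-9 by eye three to four weeks later.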

GALAP (Galium) = assay: Postemergence herbicidal evaluation; assay type: in vivo, Galium aparine; settings: for Herbicidal rating GALAP: postemergence
How it was run: as §2

ORYSAT (Rice, Tebonnet) [2] = assay: Postemergence herbicidal evaluation; assay type: in vivo, Oryza sativa, (L.) Tebonnet; settings: for Herbicidal rating ORYSAT: postemergence
How it was run: as §2

ORYSAT (Rice, Tebonnet) [3] = assay: Preemergence herbicidal evaluation; assay type: in vivo, Oryza sativa, (L.) Tebonnet; settings: rated 4-5 weeks after treatment
How it was run: as §1

CASOB (Sicklepod) = assay: Postemergence herbicidal evaluation; assay type: in vivo, Cassia obtusifolia; settings: for Herbicidal rating CASOB: postemergence
How it was run: as §2

AMBEL (Ragweed, Common) = assay: Preemergence herbicidal evaluation; assay type: in vivo, Ambrosia artemisifolia; settings: rated 4-5 weeks after treatment
How it was run: as §1

SETVI (Foxtail, Green) = assay: Preemergence herbicidal evaluation; assay type: in vivo, Setaria viridis; settings: rated 4-5 weeks after treatment
How it was run: as §1

[4] = test system: CHEAL (Lambsquarters, Common); assay: Postemergence herbicidal evaluation; assay type: in vivo, Chenopodium album; settings: for Herbicidal rating CHEAL: postemergence
How it was run: as §2

CYPSE (Flatsedge) = assay: Preemergence weed control under flooded paddy conditions; assay type: in vivo, Cyperus serotinus; settings: rated 3-4 weeks after treatment
How it was run: as §3

Structure (SMILES): Cn1c(C(F)(F)F)cc(=O)n(-c2cc(N=C3SCC(=O)N3C3CCC3)c(Cl)cc2F)c1=O [Compound 168, 3-{4-Chloro-5-[(3-cyclobutyl-4-oxo-2-thiazolidinylidene)amino]-2-fluorophenyl}-1-methyl-6-(trifluoromethyl)-2,4(1H,3H)-pyrimidinedione]
- Preemergence herbicidal rating GLXMAW ([1]; 0.0156 kg/ha): 0.0
- Preemergence herbicidal rating GLXMAW ([1]; 0.0313 kg/ha): 0.0
- Preemergence herbicidal rating GLXMAW ([1]; 0.0625 kg/ha): 0.0
- Preemergence herbicidal rating GLXMAW ([1]; 0.1250 kg/ha): 0.0
- Preemergence herbicidal rating GLXMAW ([1]; 0.2500 kg/ha): 0.0
- Herbicidal rating ZEAMX (ZEAMX (Corn, Field); rate 0.0156 kg/ha): 4.5
- Herbicidal rating ZEAMX (ZEAMX (Corn, Field); rate 0.0313 kg/ha): 4.5
- Herbicidal rating ZEAMX (ZEAMX (Corn, Field); rate 0.0625 kg/ha): 7.0
- herbicidal effect rating, MOOVA (MOOVA (Monochoria); 0.0313 kg/ha): 6.0
- herbicidal effect rating, MOOVA (MOOVA (Monochoria); 0.0625 kg/ha): 6.0
- herbicidal effect rating, MOOVA (MOOVA (Monochoria); 0.1250 kg/ha): 6.0
- herbicidal effect rating, MOOVA (MOOVA (Monochoria); 0.2500 kg/ha): 7.0
- Herbicidal rating GALAP (GALAP (Galium); rate 0.0156 kg/ha): 0.0
- Herbicidal rating GALAP (GALAP (Galium); rate 0.0313 kg/ha): 1.0
- Herbicidal rating GALAP (GALAP (Galium); rate 0.0625 kg/ha): 3.0
- Herbicidal rating ORYSAT (ORYSAT (Rice, Tebonnet) [2]; rate 0.0156 kg/ha): 1.0
- Herbicidal rating ORYSAT (ORYSAT (Rice, Tebonnet) [2]; rate 0.0313 kg/ha): 1.5
- Herbicidal rating ORYSAT (ORYSAT (Rice, Tebonnet) [2]; rate 0.0625 kg/ha): 2.5
- Preemergence herbicidal rating ORYSAT (ORYSAT (Rice, Tebonnet) [3]; 0.0156 kg/ha): 0.0
- Preemergence herbicidal rating ORYSAT (ORYSAT (Rice, Tebonnet) [3]; 0.0313 kg/ha): 0.0
- Preemergence herbicidal rating ORYSAT (ORYSAT (Rice, Tebonnet) [3]; 0.0625 kg/ha): 0.0
- Preemergence herbicidal rating ORYSAT (ORYSAT (Rice, Tebonnet) [3]; 0.1250 kg/ha): 0.0
- Preemergence herbicidal rating ORYSAT (ORYSAT (Rice, Tebonnet) [3]; 0.2500 kg/ha): 0.0
- Herbicidal rating CASOB (CASOB (Sicklepod); rate 0.0156 kg/ha): 0.0
- Herbicidal rating CASOB (CASOB (Sicklepod); rate 0.0313 kg/ha): 0.0
- Herbicidal rating CASOB (CASOB (Sicklepod); rate 0.0625 kg/ha): 2.0
- Preemergence herbicidal rating AMBEL (AMBEL (Ragweed, Common); 0.0156 kg/ha): 0.0
- Preemergence herbicidal rating AMBEL (AMBEL (Ragweed, Common); 0.0313 kg/ha): 0.0
- Preemergence herbicidal rating AMBEL (AMBEL (Ragweed, Common); 0.0625 kg/ha): 0.0
- Preemergence herbicidal rating AMBEL (AMBEL (Ragweed, Common); 0.1250 kg/ha): 0.0
- Preemergence herbicidal rating AMBEL (AMBEL (Ragweed, Common); 0.2500 kg/ha): 5.0
- Preemergence herbicidal rating SETVI (SETVI (Foxtail, Green); 0.0156 kg/ha): 0.0
- Preemergence herbicidal rating SETVI (SETVI (Foxtail, Green); 0.0313 kg/ha): 0.0
- Preemergence herbicidal rating SETVI (SETVI (Foxtail, Green); 0.0625 kg/ha): 0.0
- Preemergence herbicidal rating SETVI (SETVI (Foxtail, Green); 0.1250 kg/ha): 0.0
- Preemergence herbicidal rating SETVI (SETVI (Foxtail, Green); 0.2500 kg/ha): 5.0
- Herbicidal rating CHEAL ([4]; rate 0.0156 kg/ha): 2.0
- Herbicidal rating CHEAL ([4]; rate 0.0313 kg/ha): 3.0
- Herbicidal rating CHEAL ([4]; rate 0.0625 kg/ha): 4.0
- herbicidal effect rating, CYPSE (CYPSE (Flatsedge); 0.0313 kg/ha): 0.0
- herbicidal effect rating, CYPSE (CYPSE (Flatsedge); 0.0625 kg/ha): 0.0
- herbicidal effect rating, CYPSE (CYPSE (Flatsedge); 0.1250 kg/ha): 0.0

Structure (SMILES): COCCCN1C(=O)CSC1=Nc1cc(-n2c(=O)cc(C(F)(F)F)n(C)c2=O)c(F)cc1Cl [Compound 172, 3-{4-Chloro-2-fluoro-5-{[3-(3-methoxypropyl)-4-oxo-2-thiazolidinylidene]amino}phenyl}-1-methyl-6-(trifluoromethyl)-2,4(1H, 3H)-pyrimidinedione]
- Preemergence herbicidal rating GLXMAW ([1]; 0.0156 kg/ha): 1.0
- Preemergence herbicidal rating GLXMAW ([1]; 0.0313 kg/ha): 2.0
- Preemergence herbicidal rating GLXMAW ([1]; 0.0625 kg/ha): 7.0
- Preemergence herbicidal rating GLXMAW ([1]; 0.1250 kg/ha): 9.0
- Preemergence herbicidal rating GLXMAW ([1]; 0.2500 kg/ha): 9.0
- Postemergence herbicidal rating ZEAMX (ZEAMX (Corn, Field); Rate 0.0313 kg/ha): 5.0
- Postemergence herbicidal rating ZEAMX (ZEAMX (Corn, Field); Rate 0.0625 kg/ha): 5.0
- Postemergence herbicidal rating ZEAMX (ZEAMX (Corn, Field); rate 0.0156 kg/ha): 5.0
- herbicidal effect rating, MOOVA (MOOVA (Monochoria); 0.0313 kg/ha): 9.0
- herbicidal effect rating, MOOVA (MOOVA (Monochoria); 0.0625 kg/ha): 9.0
- herbicidal effect rating, MOOVA (MOOVA (Monochoria); 0.1250 kg/ha): 9.0
- herbicidal effect rating, MOOVA (MOOVA (Monochoria); 0.2500 kg/ha): 9.0
- Postemergence herbicidal rating GALAP (GALAP (Galium); Rate 0.0313 kg/ha): 4.0
- Postemergence herbicidal rating GALAP (GALAP (Galium); Rate 0.0625 kg/ha): 7.0
- Postemergence herbicidal rating GALAP (GALAP (Galium); rate 0.0156 kg/ha): 3.0
- Postemergence herbicidal rating ORYSAT (ORYSAT (Rice, Tebonnet) [2]; Rate 0.0313 kg/ha): 3.5
- Postemergence herbicidal rating ORYSAT (ORYSAT (Rice, Tebonnet) [2]; Rate 0.0625 kg/ha): 4.0
- Postemergence herbicidal rating ORYSAT (ORYSAT (Rice, Tebonnet) [2]; rate 0.0156 kg/ha): 3.5
- Preemergence herbicidal rating ORYSAT (ORYSAT (Rice, Tebonnet) [3]; 0.0156 kg/ha): 2.0
- Preemergence herbicidal rating ORYSAT (ORYSAT (Rice, Tebonnet) [3]; 0.0313 kg/ha): 5.0
- Preemergence herbicidal rating ORYSAT (ORYSAT (Rice, Tebonnet) [3]; 0.0625 kg/ha): 7.0
- Preemergence herbicidal rating ORYSAT (ORYSAT (Rice, Tebonnet) [3]; 0.1250 kg/ha): 7.0
- Preemergence herbicidal rating ORYSAT (ORYSAT (Rice, Tebonnet) [3]; 0.2500 kg/ha): 8.0
- Postemergence herbicidal rating CASOB (CASOB (Sicklepod); Rate 0.0313 kg/ha): 2.0
- Postemergence herbicidal rating CASOB (CASOB (Sicklepod); Rate 0.0625 kg/ha): 2.0
- Postemergence herbicidal rating CASOB (CASOB (Sicklepod); rate 0.0156 kg/ha): 1.0
- Preemergence herbicidal rating AMBEL (AMBEL (Ragweed, Common); 0.0156 kg/ha): 5.0
- Preemergence herbicidal rating AMBEL (AMBEL (Ragweed, Common); 0.0313 kg/ha): 7.0
- Preemergence herbicidal rating AMBEL (AMBEL (Ragweed, Common); 0.0625 kg/ha): 9.0
- Preemergence herbicidal rating AMBEL (AMBEL (Ragweed, Common); 0.1250 kg/ha): 9.0
- Preemergence herbicidal rating AMBEL (AMBEL (Ragweed, Common); 0.2500 kg/ha): 9.0
- Preemergence herbicidal rating SETVI (SETVI (Foxtail, Green); 0.0156 kg/ha): 5.0
- Preemergence herbicidal rating SETVI (SETVI (Foxtail, Green); 0.0313 kg/ha): 7.0
- Preemergence herbicidal rating SETVI (SETVI (Foxtail, Green); 0.0625 kg/ha): 9.0
- Preemergence herbicidal rating SETVI (SETVI (Foxtail, Green); 0.1250 kg/ha): 9.0
- Preemergence herbicidal rating SETVI (SETVI (Foxtail, Green); 0.2500 kg/ha): 9.0
- Postemergence herbicidal rating CHEAL ([4]; Rate 0.0313 kg/ha): 9.0
- Postemergence herbicidal rating CHEAL ([4]; Rate 0.0625 kg/ha): 9.0
- Postemergence herbicidal rating CHEAL ([4]; rate 0.0156 kg/ha): 6.0
- herbicidal effect rating, CYPSE (CYPSE (Flatsedge); 0.0625 kg/ha): 6.0
- herbicidal effect rating, CYPSE (CYPSE (Flatsedge); 0.1250 kg/ha): 9.0
- herbicidal effect rating, CYPSE (CYPSE (Flatsedge); 0.2500 kg/ha): 9.0

From US20020137929A1, “1 - (3-heterocyclylphenyl) isothiourea, -isourea, -guanidine and -amidine herbicidal agents” (Intellectual Property Department, BASF Aktiengesellschaft, priority 1998, published 2002)
